Measured values as given in patent publication US6509401B1, “Synergistic flame retardant combination of salts of 1-hydroxy-dihydrophosphole oxides and/or 1-hydroxyphospholane oxides and nitrogen compounds for use in polymers” (Clariant GmbH, priority 1997, dated 2003).

Assay: Comparison of water solubilities at 20° C.
Format: physicochemical
Experimental: Comparison of Water Solubilities at 20° C.

SMILES	Water solubility
CCP(C)(=O)[O-].CCP(C)(=O)[O-].CCP(C)(=O)[O-].[Al+3] [MEPAL, Aluminum salt of methylethylphosphinic acid]	6300 µg/mL
O=P1([O-])CCCC1.O=P1([O-])CCCC1.O=P1([O-])CCCC1.[Al+3] [PHOLAL, Aluminum salt of 1-hydroxy-1H-phospholane 1-oxide]	4300 µg/mL
